The text below walks through data of patent US20130210167A1, “IMMUNOASSAY FOR PYRROLIDINOPHENONES” (RANDOX LABORATORIES LIMITED, priority 2012, published 2013).

Where a name gives a salt, the structure may show the parent alone. Bounds are passed on as bounds.

The first assay has as its system polyclonal antibody raised to Immunogen IV. The assay is described as follows: Competitive biochip immunoassay of pyrrolidinophenones and potential cross-reactants (Evidence Investigator). Format: binding, sheep.
Details: not given
As for `COc1cc(CC(C)N)cc(OC)c1OC.Cl` (racemic) [(+/−)-3,4,5-Trimethoxyamphetamine hydrochloride], the “% Cross-reactivity” value is given as under 1%.
Regarding `CCCC(C(=O)c1ccc2ccccc2c1)N1CCCC1.Cl` (racemic) [(RS)-1-(2-Naphthyl)-2-(pyrrolidin-l-yl)pentanone HCl], the “% Cross-Reactivity” value amounted to 44%.
As for `CCCCC(C(=O)c1ccc(C)cc1)N1CCCC1.Cl` (racemic) [(RS)-1-(4-Methylphenyl)-2-(pyrrolidin-1-yl)hexanone HCl], the “% Cross-reactivity” value is listed as 48.4%.
For the compound `CCC(C(=O)c1ccc(C)cc1)N1CCCC1.Cl` (racemic) [(RS)-1-(4-Methylphenyl)-2-(pyrrolidin-l-yl)butanone HCl], the “% Cross-Reactivity” value is on record as 34%.
On the same count and under the same terms, for `CCC(C(=O)c1ccc2c(c1)OCO2)N1CCCC1` (racemic) [(RS)-1-(Benzo[d][1,3]dioxol-5-yl)-2-(pyrrolidin-1-yl)butanone HCl] the value was 192%.
As to `CCCC(C(=O)c1ccc2c(c1)OCO2)N1CCCC1.Cl` (racemic) [(RS)-1-(Benzo[d][1,3]dioxol-5-yl)-2-(pyrrolidin-1-yl)pentanone HCl], the “% Cross-Reactivity” value is 100% and the “% Cross-reactivity” value amounted to 100%.
In the case of `CC(C(=O)c1ccc2c(c1)OCO2)N1CCCC1.Cl` (racemic) [(RS)-1-(Benzo[d][1,3]dioxol-5-yl)-2-(pyrrolidin-1-yl)propanone HCl], the “% Cross-Reactivity” value amounted to 12%.
The same measure, in the same setting: the same measure for `CNC(C)Cc1ccc2c(c1)OCO2` (racemic) [(RS)-1-(Benzo[d][1,3]dioxol-5-yl)-N-methylpropan-2-amine]: under 1%; for `CC(N)Cc1ccc2c(c1)OCO2` (racemic) [(RS)-1-(benzo[d][1,3]dioxol-5-yl)propan-2-amine]: under 1%.
With `Cl.NC1(c2ccccc2Cl)CCCCC1=O` (racemic) [(±)-Norketamine HCl], the “% Cross-reactivity” value is reported as under 1%.
The same measure, in the same setting: for `CCCC(C(=O)c1ccc(C)cc1)N1CCCC1` (racemic) [Pyrovalerone HCl, (RS)-1-(4-methylphenyl)-2-(1-pyrrolidinyl)pentan-1-one] the value was 44.4%; for `CCC(=O)OC(Cc1ccccc1)(c1ccccc1)C(C)CNC.O=C(O)/C=C\C(=O)O` (single isomer, unassigned; (+)) [(+)-Norpropoxyphene maleate], under 1%; for `CN1CCCC1c1cccnc1` (single isomer, unassigned; (-)) [(−)-Nicotine], under 1%.
The same measure, in the same setting: the same measure for `Oc1ccccc1O` [1,2 Dihydroxybenzene (Catechol), 1,2 Dihydroxybenzene]: under 1%.
The same measure, in the same setting: for `Cl.c1ccc(C2(N3CCCCC3)CCCCC2)cc1` [1-(1-phenylcyclohexyl)piperidine) HCl] the value was under 1%.
On to `Cl.Clc1cccc(N2CCNCC2)c1` [1-(3-Chlorophenyl)piperazine HCl], for which the “% Cross-Reactivity” value is under 1%.
As to `CN1CCN(Cc2ccccc2)CC1.Cl.O` [1-Benzyl-4-methylpiperazine HCl monohydrate], the “% Cross-reactivity” value is given as under 1%.
Turning to `c1ccc(CN2CCNCC2)cc1` [1-Benzylpiperazine], the “% Cross-Reactivity” value is under 1%.
With `CN1C(=O)CN=C(c2ccccc2F)c2cc(N)ccc21` [7-NH Flunitrazepam], the “% Cross-reactivity” value is on record as under 1%.
Take `CN[C@@H](C)[C@@H](O)c1ccccc1.Cl` [(+)-Pseudoephedrine HCl]: the “% Cross-Reactivity” value is reported as under 1%.
In the case of `CN1C(=O)CC[C@H]1c1cccnc1` [(−)-Cotinine], the “% Cross-reactivity” value is recorded as under 1%.
On the same count and under the same terms, for `CC(=O)Nc1ccc(O)cc1` [Acetaminophen] the value was under 1%; for `CC(NC(C)(C)C)C(=O)c1cccc(Cl)c1` (stereo not shown) [Bupropion HCl], under 1%.
On to `CCC(NC)C(=O)c1ccc2c(c1)OCO2.Cl` (stereo not shown) [Butylone HCl], for which the “% Cross-reactivity” value was 11.4% and the “binding of antibodies of the invention (in words)” value is on record as “able to bind”.
With `C[C@H](N)Cc1ccccc1` [D-Amphetamine], the “% Cross-Reactivity” value is listed as under 1%.
Turning to `COc1ccc2c(c1)[C@]13CCCC[C@@H]1[C@H](C2)N(C)CC3` [Dextromethorphan hydrobromide monohydrate], the “% Cross-reactivity” value was under 1%.
Still for that read-out and setting: for `CCN(CC)C(C)C(=O)c1ccccc1` (stereo not shown) [Diethylpropion HCl] the value was under 1%; for `CCO[C@@H]1O[C@H](C(=O)O)[C@@H](O)[C@H](O)[C@H]1O` [Ethyl-glucuronide], under 1%; for `CNC(C)C(=O)c1ccc(F)cc1.Cl` (stereo not shown) [Flephedrone HCl], under 1%.
Regarding `CNCCC(Oc1ccc(C(F)(F)F)cc1)c1ccccc1` (stereo not shown) [Fluoxetine HCl], the “% Cross-reactivity” value was under 1%.
On to `O=C(CCCN1CCC(O)(c2ccc(Cl)cc2)CC1)c1ccc(F)cc1` [Haloperidol], for which the “% Cross-reactivity” value was under 1%.
The same measure, in the same setting: for `CC(=O)Oc1ccc2c3c1O[C@H]1[C@@H](OC(C)=O)C=C[C@H]4[C@@H](C2)N(C)CC[C@@]341` [Heroin] the value was under 1%; for `COc1ccc2c3c1O[C@H]1C(=O)CC[C@H]4[C@@H](C2)N(C)CC[C@]314` [Hydrocodone], under 1%; for `CC(C)Cc1ccc(C(C)C(=O)O)cc1` (stereo not shown) [Ibuprofen], under 1%.
Take `CCCCCn1cc(C(=O)c2cccc3ccccc23)c2ccccc21` [JWH-018]: the “% Cross-Reactivity” value is under 1%.
Still for that read-out and setting: the same measure for `CCCCCn1cc(C(=O)Cc2ccccc2OC)c2ccccc21` [JWH-250]: under 1%.
In the case of `CCN(CC)C(=O)[C@@H]1C=C2c3cccc4[nH]cc(c34)C[C@H]2N(C)C1` [LSD], the “% Cross-reactivity” value was under 1%.
On the same count and under the same terms, for `O=C1Nc2ccc(Cl)cc2C(c2ccccc2Cl)=NC1O` (stereo not shown) [Lorazepam] the value was under 1%.
For `CNC(C)C(=O)c1ccc(C)cc1` (stereo not shown) [Mephedrone HCl], the “% Cross-Reactivity” value is listed as under 1%.
On to `CCCC(C)(COC(N)=O)COC(N)=O` [Meprobamate], for which the “% Cross-reactivity” value is under 1%.
In the case of `COc1cc(CCN)cc(OC)c1OC` [Mescaline HCl], the “% Cross-Reactivity” value is under 1%.
Consider `CCC(=O)C(CC(C)N(C)C)(c1ccccc1)c1ccccc1` (stereo not shown) [Methadone], for which the “% Cross-reactivity” value was under 1%.
As for `CN[C@@H](C)Cc1ccccc1` [Methamphetamine HCl], the “% Cross-Reactivity” value is recorded as under 1%.
For the compound `Cc1ccccc1-n1c(C)nc2ccccc2c1=O` [Methaqualone], the “% Cross-reactivity” value is on record as under 1%.
With `CNC(C)C(=O)c1ccc2c(c1)OCO2` (stereo not shown) [Methylone HCl], the “% Cross-reactivity” value is under 1%.
On to `COC(=O)C(c1ccccc1)C1CCCCN1` (stereo not shown) [Methylphenidate HCl], for which the “% Cross-reactivity” value is under 1%.
Same read-out and setting: the same measure for `C=CCN(CC=C)CCc1c[nH]c2ccc(OC)cc12` [N,N-diallyl-5-methoxytryptamine]: under 1%; for `Cc1ccc(C(=O)C(C)N)cc1.Cl` (stereo not shown) [Nor-mephedrone HCl]: under 1%.
As for `CNCCCC1(c2ccc(F)cc2)OCc2cc(C#N)ccc21` (stereo not shown) [Norescitalopram], the “% Cross-reactivity” value is under 1%.
On to `CCOC(=O)C1(c2ccccc2)CCNCC1` [Normeperidine], for which the “% Cross-reactivity” value is under 1%.
Consider `CNCCC=C1c2ccccc2CCc2ccccc21` [Nortriptyline HCl], for which the “% Cross-reactivity” value is reported as under 1%.
The same measure, in the same setting: for `COc1ccc2c3c1O[C@H]1C(=O)CC[C@@]4(O)[C@@H](C2)N(C)CC[C@]314` [Oxycodone] the value was under 1%; for `CCCC(NC)C(=O)c1ccccc1.Cl` (stereo not shown) [Pentedrone HCl], under 1%.
Turning to `CCCC(NC)C(=O)c1ccc2c(c1)OCO2.Cl` (stereo not shown) [Pentylone HCl], the “% Cross-reactivity” value is recorded as 17.4% and the “binding of antibodies of the invention (in words)” value was “able to bind”.
Consider `NCCc1ccccc1.O=S(=O)(O)O` [Phenethylamine sulphate], for which the “% Cross-reactivity” value is given as under 1%.
For `O=C(O)c1ccccc1O` [Salicylic acid], the “% Cross-reactivity” value is under 1%.
As to `COC(=O)[C@@H]1C[C@H](OC(C)=O)C(=O)[C@H]2[C@@]1(C)CC[C@H]1C(=O)O[C@H](c3ccoc3)C[C@]21C` [Salvinorin A], the “% Cross-Reactivity” value was under 1%.
Turning to `CN[C@H]1CC[C@@H](c2ccc(Cl)c(Cl)c2)c2ccccc21` [Sertraline HCl], the “% Cross-reactivity” value was under 1%.
In the case of `COc1cccc(C2(O)CCCCC2CN(C)C)c1` (stereo not shown) [Tramadol HCl], the “% Cross-reactivity” value was under 1%.
Same read-out and setting: the same measure for `Cl.O=c1n(CCCN2CCN(c3cccc(Cl)c3)CC2)nc2ccccn12` [Trazadone HCl]: under 1%; for `CCN(C(C)=O)c1cccc(-c2ccnc3c(C#N)cnn23)c1` [Zaleplon]: under 1%; for `Cc1ccc(-c2nc3ccc(C)cn3c2CC(=O)N(C)C)cc1` [Zolpidem tartrate]: under 1%.
On the same count and under the same terms, the same measure for `CN1CCN(C(=O)OC2c3nccnc3C(=O)N2c2ccc(Cl)cn2)CC1` (stereo not shown) [Zopiclone]: under 1%; for (−)-11-nor-9-Carboxy-delta9-THC: under 1%; for (−)-Delta9-THC: under 1%.
On the same count and under the same terms, for Dihydroxymephedrone HCl the value was under 1%; for Prolatine, under 1%.

Staying with this assay, now noted: Table 2, further cross-reactivity results; competition with Hapten-A HRP conjugate.
Consider `O=C(CN1CCCC1)c1ccccc1` [1-Phenyl-2(1-pyrrolidinyl)ethanone], for which the “% Cross-reactivity” value was under 1%.
On the same count and under the same terms, the same measure for `O=C(O)c1c[nH]c2ccccc12` [Indole-3-carboxylic acid]: under 1%; for `O=C(O)[C@H]1O[C@@H](OCC(Cl)(Cl)Cl)[C@H](O)[C@@H](O)[C@@H]1O` [Urochloralic acid]: under 1%.
